Assay results taken from patent US10604696B2, “Process for acidizing” (Cleansorb Limited, priority 2014, dated 2020).

Experiments:
[1] = Calcium salt precipitation following acidising of calcium carbonate in fresh water; assay type: physicochemical
Source text: The dissolving capacities of delta glucono lactone and […] (a formic acid precursor commercially available from Cleansorb Limited of Guildford, UK) and their capacity for precipitation of calcium salts is shown in Table 1.

[2] = Calcium salt precipitation at 5° C. from spent acidizing solutions; assay type: physicochemical; details: 2.7 g CaCO3 in 100 ml, 65 hours at approximately 25° C., then 20 hours at 5° C.
Experimental: 100 ml solutions were prepared in deionised water in 100 ml Duran bottles: 2.7 g of laboratory grade CaCO3 was added to each solution. Acidizing was allowed to proceed at room temperature (approximately 25° C.) for 65 hours. To simulate the effect of low temperature spent acidizing solutions were placed in a refrigerator at 5° C. and observed at 20 hours for the presence of any precipitate.

O=C1O[C@H](CO)[C@@H](O)[C@H](O)[C@H]1O [Glucono delta lactone, D-(+)-Gluconic acid δ-lactone]
Calcium salt precipitated following acidising of calcium carbonate in fresh water ([1]; acid precursor used at 1% w/v): No
Calcium salt precipitated following acidising of calcium carbonate in fresh water ([1]; acid precursor used at 2% w/v): No
Calcium salt precipitated following acidising of calcium carbonate in fresh water ([1]; acid precursor used at 3% w/v): Yes
Calcium salt precipitated following acidising of calcium carbonate in fresh water ([1]; acid precursor used at 5% w/v): Yes
Calcium salt precipitated following acidising of calcium carbonate in fresh water ([1]; acid precursor used at 10% w/v): Yes
Calcium salt precipitated at 5° C. following acidising ([2]; 10% w/v glucono delta lactone plus sodium acetate 5% w/v): No
Calcium salt precipitated at 5° C. following acidising ([2]; 10% w/v glucono delta lactone plus sodium lactate 60% solution 10.8% w/v): No
Calcium salt precipitated at 5° C. following acidising ([2]; 10% w/v glucono delta lactone, no additional component): Yes
Calcium salt precipitated at 5° C. following acidising ([2]; 22% w/v glucono delta lactone plus sodium acetate 5% w/v): No
Calcium salt precipitated at 5° C. following acidising ([2]; 22% w/v glucono delta lactone plus sodium lactate 60% solution 10.8% w/v): No
Calcium salt precipitated at 5° C. following acidising ([2]; 22% w/v glucono delta lactone, no additional component): Yes
